# Assay results reported in patent US9204653B2, “5-fluoro pyrimidine derivatives” (DOW AGROSCIENCES LLC, priority 2008, dated 2015).
# Where two headings read alike, the source gives them in different places.
# Tested on: Mycosphaerella graminicola; Anamorph: Septoria tritici; Bayer Code SEPTTR
# Test: Leaf blotch of wheat, foliar fungicide treatment, one day protectant (1DP) or three day curative (3DC)
# Format: in vivo, Septoria tritici on wheat plants (variety Yuma)
# Conditions: Zymoseptoria tritici; for pest or weed control at 50 ppm / pest or weed control at 200 ppm: % disease control rating
# [1] = 24 h, one day protectant, 25 ppm, rating of percent disease control, read-out: SETTTR 1DP 25 ppm
# [2] = 24 h, one day protectant, rating of percent disease control, read-out: SEPTTR 1DP 100 ppm
# [3] = 72 h, three day curative, 25 ppm, rating of percent disease control, read-out: SEPTTR 3DC 25 ppm
# [4] = 72 h, three day curative, rating of percent disease control, read-out: SEPTTR 3DC 100 ppm
# [5] = 24 h, one day protectant (1DP), 25 ppm, rating of percent disease control, read-out: SETTTR 1DP 25 ppm
# [6] = 24 h, one day protectant (1DP), rating of percent disease control, read-out: SEPTTR 1DP 100 ppm
# [7] = 72 h, three day curative (3DC), 25 ppm, rating of percent disease control, read-out: SEPTTR 3DC 25 ppm
# [8] = 72 h, three day curative (3DC), rating of percent disease control, read-out: SEPTTR 3DC 100 ppm
# [9] = 24 h, one day protectant (1DP), 25 ppm, percent disease control rating, read-out: SETTTR 1DP 25 ppm
# [10] = 24 h, one day protectant (1DP), percent disease control rating, read-out: SEPTTR 1DP 100 ppm
# [11] = 72 h, three day curative (3DC), 25 ppm, percent disease control rating, read-out: SEPTTR 3DC 25 ppm
# [12] = 72 h, three day curative (3DC), percent disease control rating, read-out: SEPTTR 3DC 100 ppm
# [13] = 24 h, one day protectant (1DP), 25 ppm (first 1DP column), percent control rating, read-out: SETTTR 1DP 25 ppm
# [14] = 24 h, one day protectant (1DP), 25 ppm as printed (second 1DP column), percent control rating, read-out: SETTTR 1DP 25 ppm
# [15] = 72 h, three day curative (3DC), 25 ppm, percent control rating, read-out: SEPTTR 3DC 25 ppm
# [16] = 72 h, three day curative (3DC), percent control rating, read-out: SEPTTR 3DC 100 ppm
compound,measurement,setting,value
C/C(=N\c1nc(OCc2ccc(F)cc2)ncc1F)N(C)C [Compound 727],pest or weed control at 25 ppm,[1],76 to 100%
same,pest or weed control at 100 ppm,[2],76 to 100%
same,pest or weed control at 25 ppm,[3],76 to 100%
same,pest or weed control at 100 ppm,[4],76 to 100%
O=C(Nc1nc(OCc2cccc(F)c2)ncc1F)OCc1cccc(F)c1 [Compound 360],pest or weed control at 25 ppm,[5],76 to 100%
same,pest or weed control at 100 ppm,[6],76 to 100%
same,pest or weed control at 25 ppm,[7],76 to 100%
same,pest or weed control at 100 ppm,[8],76 to 100%
NN(Cc1ccccc1Cl)c1nc(OCc2ccc(F)cc2)ncc1F [Compound 456],pest or weed control at 25 ppm,[5],51 to 75%
same,pest or weed control at 100 ppm,[6],76 to 100%
same,pest or weed control at 25 ppm,[7],0 to 25%
same,pest or weed control at 100 ppm,[8],76 to 100%
Nc1nc(OCc2cnc(Cl)s2)ncc1F [Compound 429],pest or weed control at 25 ppm,[5],76 to 100%
same,pest or weed control at 100 ppm,[6],76 to 100%
same,pest or weed control at 25 ppm,[7],76 to 100%
same,pest or weed control at 100 ppm,[8],76 to 100%
COc1ccc(CCCOc2ncc(F)c(N)n2)cc1 [Compound 462],pest or weed control at 25 ppm,[5],51 to 75%
same,pest or weed control at 100 ppm,[6],76 to 100%
same,pest or weed control at 25 ppm,[7],51 to 75%
same,pest or weed control at 100 ppm,[8],26 to 50%
Cc1cc(C)cc(COc2ncc(F)c(NSc3ccccc3[N+](=O)[O-])n2)c1 [Compound 440],pest or weed control at 25 ppm,[5],0 to 25%
same,pest or weed control at 100 ppm,[6],0 to 25%
same,pest or weed control at 25 ppm,[7],26 to 50%
same,pest or weed control at 100 ppm,[8],0 to 25%
COc1cccc(COc2ncc(F)c(NC(=O)Nc3ccccc3F)n2)c1 [Compound 535],pest or weed control at 25 ppm,[5],0 to 25%
same,pest or weed control at 100 ppm,[6],0 to 25%
same,pest or weed control at 25 ppm,[7],0 to 25%
same,pest or weed control at 100 ppm,[8],0 to 25%
Fc1ccc(COc2ncc(F)c(NCc3cccs3)n2)cc1 [Compound 867],pest or weed control at 50 ppm,"24 h, one day protectant",76 to 100%
same,pest or weed control at 200 ppm,"24 h, one day protectant",76 to 100%
Nc1nc(OCC2CCCCC2)ncc1F [Compound 846],pest or weed control at 50 ppm,"24 h, one day protectant",0 to 25%
same,pest or weed control at 200 ppm,"24 h, one day protectant",26 to 50%
"Cc1ccc(COc2ncc(F)c(NS(C)(=O)=O)n2)cc1 [Compound 38, N-[5-Fluoro-2-(4-methylbenzyloxy)pyrimidin-4-yl]methanesulfonamide]",pest or weed control at 25 ppm,[9],26 to 50%
same,pest or weed control at 100 ppm,[10],26 to 50%
same,pest or weed control at 25 ppm,[11],0 to 25%
same,pest or weed control at 100 ppm,[12],26 to 50%
COc1ccccc1CN(C)c1nc(O)ncc1F [Compound 1070],pest or weed control at 25 ppm,[13],26 to 50%
same,pest or weed control at 25 ppm,[14],0 to 25%
same,pest or weed control at 25 ppm,[15],0 to 25%
same,pest or weed control at 100 ppm,[16],0 to 25%
COCCOC(=O)Nc1nc(OCc2ccccc2)ncc1F [Compound 174],pest or weed control at 25 ppm,[9],76 to 100%
same,pest or weed control at 100 ppm,[10],76 to 100%
same,pest or weed control at 25 ppm,[11],76 to 100%
same,pest or weed control at 100 ppm,[12],76 to 100%
Fc1cnc(OCc2ccco2)nc1NCc1cccs1 [Compound 899],pest or weed control at 50 ppm,"24 h, one day protectant",26 to 50%
same,pest or weed control at 200 ppm,"24 h, one day protectant",76 to 100%
COc1cc(COc2ncc(F)c(NSc3ccccc3[N+](=O)[O-])n2)cc(OC)c1 [Compound 685],pest or weed control at 25 ppm,[1],0 to 25%
same,pest or weed control at 100 ppm,[2],76 to 100%
same,pest or weed control at 25 ppm,[3],0 to 25%
same,pest or weed control at 100 ppm,[4],0 to 25%
CCCCCNC(=O)Nc1nc(O)ncc1F [Compound 972],pest or weed control at 25 ppm,[13],51 to 75%
same,pest or weed control at 25 ppm,[14],76 to 100%
same,pest or weed control at 25 ppm,[15],51 to 75%
same,pest or weed control at 100 ppm,[16],51 to 75%
Cc1cc(COc2ncc(F)c(N)n2)nn1C [Compound 431],pest or weed control at 25 ppm,[5],76 to 100%
same,pest or weed control at 100 ppm,[6],76 to 100%
same,pest or weed control at 25 ppm,[7],76 to 100%
same,pest or weed control at 100 ppm,[8],76 to 100%
COc1cccc(COc2ncc(F)c(/N=C3\CCCCN3C)n2)c1 [Compound 327],pest or weed control at 25 ppm,[5],51 to 75%
same,pest or weed control at 100 ppm,[6],76 to 100%
same,pest or weed control at 25 ppm,[7],51 to 75%
same,pest or weed control at 100 ppm,[8],76 to 100%
CC(Oc1ncc(F)c(N)n1)c1cccc([N+](=O)[O-])c1 (stereo not shown) [Compound 576],pest or weed control at 25 ppm,[1],26 to 50%
same,pest or weed control at 100 ppm,[2],76 to 100%
same,pest or weed control at 25 ppm,[3],26 to 50%
same,pest or weed control at 100 ppm,[4],76 to 100%
COc1ccc(/C(C)=N/Nc2nc(OC)ncc2F)cc1 [Compound 1017],pest or weed control at 25 ppm,[13],0 to 25%
same,pest or weed control at 25 ppm,[14],26 to 50%
same,pest or weed control at 25 ppm,[15],0 to 25%
same,pest or weed control at 100 ppm,[16],51 to 75%
Fc1ccc(COc2ncc(F)c(N3CCOCC3)n2)cc1 [Compound 897],pest or weed control at 50 ppm,"24 h, one day protectant",0 to 25%
same,pest or weed control at 200 ppm,"24 h, one day protectant",51 to 75%
CCOCNc1nc(OCc2ccn(C)n2)ncc1F [Compound 374],pest or weed control at 25 ppm,[5],51 to 75%
same,pest or weed control at 100 ppm,[6],76 to 100%
same,pest or weed control at 25 ppm,[7],76 to 100%
same,pest or weed control at 100 ppm,[8],76 to 100%
